From patent US20110053836A1, “USE OF DEFENSINS AGAINST TUBERCULOSIS” (priority 2008, published 2011)
Like-named read-outs stand apart in the source and are kept apart here.

Assays:
Format in all cases: cell-based, Mycobacterium tuberculosis
[1] = test system: M. tuberculosis H37Rv; conditions: for Fold of reduction: RLU relative to buffer control; for MIC: concentration that reduces RLU by 90% (1 log), 96 hours
[2] = test system: H37Rv expressing LUX; conditions: 6.25 micrograms/ml; ~0.1 OD600 and ~1.0 OD600; 96 hours
[3] = test system: M. tuberculosis
Protocol: The validation of the Relative Light Unit assay (RLU) was carried out by comparing it to conventional Colony Forming Unit (CFU) assay. In this assay, the cells were exposed to the different concentrations of the peptide for 96 hours and then plated onto 7H10 plates. The plates were incubated at 37° C. for 30 days and the colonies were enumerated.

[4] = test system: M. tuberculosis; remark: listed apart in the source
[5] = peptide 25 micrograms/ml, buffer control 53503
[6] = peptide 6.25 micrograms/ml, buffer control 75380

Row | Substance | Fold of reduction ([1]; peptide 25 micrograms/ml) | RLU [1, 5] | MIC [1] | other results
1 | SEQ ID NO: 3: plectasin variant, substitutions Q14K + K26R compared to SEQ ID NO: 2 (GFGCNGPWDEDDMKCHNHCKSIKGYRGGYCAKGGFVCKCY) | 23.2 | 2310 |  | 
2 | SEQ ID NO: 4: plectasin variant, substitution K26R compared to SEQ ID NO: 2 (GFGCNGPWDEDDMQCHNHCKSIKGYRGGYCAKGGFVCKCY) | 28.1 | 1903 |  | 
3 | SEQ ID NO: 5: plectasin variant, substitution Q14F compared to SEQ ID NO: 2 (GFGCNGPWDEDDMFCHNHCKSIKGYKGGYCAKGGFVCKCY) | 34.1 | 1567 |  | 
4 | SEQ ID NO: 6: plectasin variant, substitutions Q14R + K26R + K38R compared to SEQ ID NO: 2 (GFGCNGPWDEDDMRCHNHCKSIKGYRGGYCAKGGFVCRCY) | 11.9 | 4483 |  | 
5 | SEQ ID NO: 7: plectasin variant, substitutions Q14R + K20R compared to SEQ ID NO: 2 (GFGCNGPWDEDDMRCHNHCRSIKGYKGGYCAKGGFVCKCY) | 40.0 | 1339 | 6.25 micrograms/ml | 
6 | SEQ ID NO: 8: plectasin variant, substitution Q14L compared to SEQ ID NO: 2 (GFGCNGPWDEDDMLCHNHCKSIKGYKGGYCAKGGFVCKCY) | 24.9 | 2145 |  | 
7 | SEQ ID NO: 9: plectasin variant, substitutions N5R + M13V compared to SEQ ID NO: 2 (GFGCRGPWDEDDVQCHNHCKSIKGYKGGYCAKGGFVCKCY) | 31.8 | 1685 | 6.25 micrograms/ml | 
8 | SEQ ID NO: 10: plectasin variant, substitutions M13K + K38R compared to SEQ ID NO: 2 (GFGCNGPWDEDDKQCHNHCKSIKGYKGGYCAKGGFVCRCY) | 46.4 | 1152 |  | 
9 | SEQ ID NO: 11: plectasin variant, substitutions Q14R + K26R compared to SEQ ID NO: 2 (GFGCNGPWDEDDMRCHNHCKSIKGYRGGYCAKGGFVCKCY) | 14.8 | 3604 |  | 
10 | SEQ ID NO: 12: plectasin variant, substitutions N5S + D9S + M13L + Q14R + N17V + A31S compared to SEQ ID NO: 2 (GFGCSGPWSEDDLRCHVHCKSIKGYKGGYCSKGGFVCKCY) | 13.7 | 3901 |  | 
11 | SEQ ID NO: 13: plectasin variant, substitutions N5G + M13L compared to SEQ ID NO: 2 (GFGCGGPWDEDDLQCHNHCKSIKGYKGGYCAKGGFVCKCY) | 20.8 | 2576 |  | 
12 | SEQ ID NO: 14: plectasin variant, substitutions N5G + D9S + M13L + N17Q + A31T compared to SEQ ID NO: 2 (GFGCGGPWSEDDLQCHQHCKSIKGYKGGYCTKGGFVCKCY) | 49.4 | 1083 |  | Activity against early log and early stationary cells [2]: potent activity against organisms in both early log and early stationary phases of growth; MBC obtained by CFU ([3]; 96 hours exposure, plated on 7H10, 30 days): 6.25 micrograms/ml; Mode of action (bactericidal) ([3]; MIC by RLU equivalent to MBC by CFU): bactericidal; Inhibition of growth by OD600 ([4]; 6.25 micrograms/ml, T-25 flasks): completely inhibit the growth; MIC (=MBC) ([4]; confirmed by the assays of Examples 3 and 4 (CFU, OD600)): 6.25 micrograms/ml
13 | SEQ ID NO: 15: plectasin variant, substitutions D9N + M13L + Q14R compared to SEQ ID NO: 2 (GFGCNGPWNEDDLRCHNHCKSIKGYKGGYCAKGGFVCKCY) | 12.9 | 4165 |  | 
14 | SEQ ID NO: 16: plectasin variant, substitutions D9G + Q14R + K23R compared to SEQ ID NO: 2 (GFGCNGPWGEDDMRCHNHCKSIRGYKGGYCAKGGFVCKCY) | 11.9 | 4495 |  | 
15 | SEQ ID NO: 17: plectasin variant, substitutions D9S + M13L + Q14R + K26R compared to SEQ ID NO: 2 (GFGCNGPWSEDDLRCHNHCKSIKGYRGGYCAKGGFVCKCY) |  |  | ~6.25 micrograms/ml | Fold of reduction ([1]; peptide 6.25 micrograms/ml): 9.1; RLU [1, 6]: 8321
16 | SEQ ID NO: 18: plectasin variant, substitutions D9S + Q14R + K26R compared to SEQ ID NO: 2 (GFGCNGPWSEDDMRCHNHCKSIKGYRGGYCAKGGFVCKCY) |  |  | ~6.25 micrograms/ml | Fold of reduction ([1]; peptide 6.25 micrograms/ml): 9.8; RLU [1, 6]: 7702
17 | SEQ ID NO: 19: plectasin variant, substitutions D9S + Q14K + K26R compared to SEQ ID NO: 2 (GFGCNGPWSEDDMKCHNHCKSIKGYRGGYCAKGGFVCKCY) |  |  | ~6.25 micrograms/ml | Fold of reduction ([1]; peptide 6.25 micrograms/ml): 9.9; RLU [1, 6]: 7630
18 | SEQ ID NO: 20: plectasin variant, substitutions D9S + M13L + Q14K + V36L compared to SEQ ID NO: 2 (GFGCNGPWSEDDLKCHNHCKSIKGYKGGYCAKGGFLCKCY) |  |  | 6.25 micrograms/ml | Fold of reduction ([1]; peptide 6.25 micrograms/ml): 14.1; RLU [1, 6]: 5355
19 | plectasin [SEQ ID NO: 2, reference compound] | 25.7 | 2070 | around 25 micrograms/ml | 
